This passage reports TGI results from PubChem BioAssay (NCI).

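48-hour exposure; five concentrations; linearly interpolated endpoints. TGI is the concentration that stops growth completely.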

By TGI is commonly meant the concentration giving total growth inhibition. A higher TGI goes with less potent growth arrest.

Holding throughout (experiment): DTP human tumour cell line panel, 48 h
The test system of experiment [1] is ACHN renal.
The test system of experiment [2] is CCRF-CEM leukemia.
The subject of experiment [3] is HOP-62 NSCLC.
Experiment [4] deals with HOP-92 NSCLC.
Experiment [5] relates to HT29 colon.
In experiment [6] the test system is K-562 leukemia.
Experiment [7] relates to MALME-3M melanoma.
In experiment [8] the test system is RPMI-8226 leukemia.
For experiment [9], the system named is SF-295 CNS.
Experiment [10] has as its system TK-10 renal.
Experiment [11] relates to U251 CNS.
Experiment [12] concerns HL-60(TB) leukemia.
For experiment [13], the system named is MOLT-4 leukemia.

Turning to `O=[N+]([O-])c1ccc2c(c1)C1=C(CO2)Cc2ccccc2O1`, the TGI was 29.9 µM in experiment [1]; above 100 µM in experiment [2]; above 100 µM in experiment [3]; 81.5 µM in experiment [4]; 88 µM in experiment [5]; above 100 µM in [6]. Besides, the TGI is 70.4 µM in experiment [7]; above 100 µM in experiment [8]; above 100 µM in [9]; 57 µM in experiment [10]; 36.2 µM in experiment [11].

Regarding `Nc1ncnc2c1ncn2[C@@H]1C[C@@H]1CO`, the TGI in experiment [1], in experiment [2], in experiment [12], in experiment [3], in experiment [5] and in experiment [6] was above 100 µM in each case. The TGI in experiment [7], in experiment [13], in experiment [8], in experiment [9] and in experiment [11] was above 100 µM throughout.

On to `CCCCNC(=S)Nc1nc(C(=O)NNC(=S)Nc2ccccc2)cs1`, for which the TGI in experiment [1] was above 100 µM; in experiment [2] it was above 100 µM; in [3] it was above 100 µM; in [4], 38.6 µM; in [5], above 100 µM; in experiment [13], above 100 µM. The TGI is above 100 µM in experiment [8], above 100 µM in experiment [9], above 100 µM in experiment [10] and 48.3 µM in experiment [11].

On to `O=c1c(/C=C/c2c(O)ccc3ccccc23)nnc2sc(-c3cccc(Br)c3)nn12`, for which the TGI in experiment [1] is above 100 µM; in [2] it was 18.6 µM; in [12] it was 26.6 µM; in [3] it was above 100 µM; in experiment [5], 82.1 µM; in experiment [6], 77.7 µM. The TGI is above 100 µM in experiment [7]; 40.3 µM in experiment [13]; above 100 µM in experiment [8]; above 100 µM in experiment [9]; above 100 µM in [11].

As for `CC1CCC(C(C)C)C(OC(=O)NCn2cc(-c3ccccc3)nn2)C1` (centres undefined), the TGI in experiment [1], in experiment [2], in [12], in experiment [3], in experiment [4] and in experiment [5] was above 100 µM each time. Also, the TGI in experiment [6], in experiment [7], in experiment [8], in experiment [9], in experiment [10] and in experiment [11] was above 100 µM each time.

With `CC12CC(c3ccccc3O1)C(C(=O)Nc1ccc(Cl)cc1Cl)C(=O)N2` (centres undefined), the TGI in experiment [1] is 67.3 µM; in experiment [2], 30.1 µM; in [12], 21.2 µM; in [3] it was 48.4 µM; in [5], above 100 µM; in experiment [6] it was above 100 µM. Also, the TGI in experiment [7] is 89.8 µM; in experiment [13], 54.5 µM; in experiment [8], above 100 µM; in experiment [9], above 100 µM; in experiment [11], 48.2 µM.

Take `CCCNC(=S)NNC(=O)CSc1nc(-c2ccccc2)c(-c2ccccc2)[nH]1`: the TGI is above 100 µM in experiment [1]; above 100 µM in [2]; above 100 µM in experiment [12]; above 100 µM in experiment [3]; 97.8 µM in experiment [4]; above 100 µM in experiment [5]. Besides, the TGI in experiment [7] is 95.4 µM; in experiment [13] it was 61.7 µM; in experiment [8], above 100 µM; in [9] it was above 100 µM; in experiment [10], above 100 µM; in experiment [11] it was above 100 µM.

Consider `COc1ccc(-[n+]2nc(S(=O)(=O)O)c(/C=C/c3ccc(N(C)C)cc3)cc2C#N)cc1`, for which the TGI in [1], in experiment [2], in experiment [3], in experiment [4], in experiment [5] and in experiment [6] was above 100 µM in each case. Also, the TGI in experiment [13], in experiment [8], in experiment [9], in experiment [10] and in experiment [11] was above 100 µM in each case.

In the case of `CC(C)C(=O)OCC1OC(n2c(Br)nc3c(=O)[nH]c(N)nc32)C(OC(=O)C(C)C)C1OC(=O)C(C)C` (centres undefined), the TGI is above 100 µM in experiment [1]; above 100 µM in [3]; above 100 µM in experiment [4]; 40.3 µM in experiment [5]; above 100 µM in experiment [7]; 48.2 µM in experiment [13]. Besides, the TGI in experiment [9] came out at 56.7 µM.

For `N#Cc1c(N)n(-c2cccc(C(=O)O)c2)c(=O)c2cc([N+](=O)[O-])ccc12`, the TGI in [1], in experiment [12], in experiment [4], in experiment [5], in experiment [6] and in [8] was above 100 µM throughout. Further, the TGI in experiment [10] and in experiment [11] was above 100 µM in each case.
